For data set [1], the system named is Rattus norvegicus. The experiment in a line: Antihypertensive activity in spontaneously hypertensive rat assessed as mean blood pressure at 30 mg/kg, po by tail-cuff plethysmography. In kind it is functional, organism-based.
Data set [2] deals with T1, Type-1 angiotensin II receptor (Homo sapiens, UniProt P30556).
T1 sequence (P30556 whole entry): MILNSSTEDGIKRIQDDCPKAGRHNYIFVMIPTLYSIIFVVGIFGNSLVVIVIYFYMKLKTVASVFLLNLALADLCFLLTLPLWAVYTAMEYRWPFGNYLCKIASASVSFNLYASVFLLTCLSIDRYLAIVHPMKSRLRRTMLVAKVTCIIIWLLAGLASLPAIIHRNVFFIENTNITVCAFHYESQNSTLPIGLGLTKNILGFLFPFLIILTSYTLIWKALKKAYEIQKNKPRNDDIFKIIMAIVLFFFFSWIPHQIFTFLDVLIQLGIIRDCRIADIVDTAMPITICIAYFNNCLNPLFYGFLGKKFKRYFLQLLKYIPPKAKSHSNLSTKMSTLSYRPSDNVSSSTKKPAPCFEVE
The experiment in a line: Displacement of [125I]Sar1Ile8-Ang2 from human AT1 receptor expressed in CHO-K1 cell membranes after 180 mins. In general terms: Displacement assays read how much labelled ligand stays bound in the presence of the test substance.

Data set [3] deals with T2, Type-1 angiotensin II receptor (Oryctolagus cuniculus, UniProt P34976).
T2 sequence (P34976 whole entry): T1 sequence (P30556 whole entry) with I2M, V49A, I254V, I270V, R272H, R311K, T349S, A353V
Description: Antagonist activity against AT1 receptor in Japanese White rabbit aortic strips assessed as reduction in angiotension-2-induced contractile response after 60 mins by Schild's plot analysis. As to conditions: read-out: pA2 (converted).

Data set [4] relates to Rattus norvegicus. Description: Antihypertensive activity in spontaneously hypertensive rat assessed as decrease in mean blood pressure at 10 mg/kg, po within 24 hrs by tail-cuff plethysmography. Type of data set: functional, organism-based.
The nature of data set [5]: Toxicity in Kunming mouse at 2 g/kg, po assessed as mortality after 2 weeks. Type of data set: organism-based. As to conditions: in vivo, 2000 mg/kg.
Data set [6] in a line: Toxicity in Kunming mouse at 1.8 g/kg, po assessed as mortality after 2 weeks. In kind it is organism-based. As to conditions: in vivo, 1800 mg/kg.
Data set [7] can be described thus: Toxicity in Kunming mouse at 1.5 g/kg, po assessed as mortality after 2 weeks. As to conditions: in vivo, 1500 mg/kg. In kind it is organism-based.
Data set [8] in a line: Toxicity in Kunming mouse at 1.3 g/kg, po assessed as mortality after 2 weeks. In kind it is organism-based. As to conditions: in vivo, 1300 mg/kg.
A short description of data set [9]: Toxicity in orally dosed Kunming mouse assessed as mortality after 2 weeks. Type of data set: organism-based. As to conditions: in vivo, po.

SMILES strings stand for the structures. Residue numbers refer to the chain shown, from its start. The source made the active and inactive calls. The calls are words filed in the database; no cut-off is given here.

For `CCCCc1nc(Cl)c(CO)n1Cc1ccc(-c2ccccc2-c2nnn[nH]2)cc1`, the outcome with Rattus norvegicus [1] was Active.

By IC50 is commonly meant the concentration needed to halve the response being measured. In the case of `CCCc1nc2c(C)cc(C(=O)NC[C@@H](C)c3ccccc3)cc2n1Cc1ccc(-c2ccccc2-c2nnn[nH]2)cc1`, the IC50 in [2] was 5 nM. Moreover, the Kb in [3] was 26.3 nM.

Compound `CCCc1nc2c(C)cc(C(=O)N[C@H](CO)c3ccccc3)cc2n1Cc1ccc(-c2ccccc2-c2nnn[nH]2)cc1` yielded an IC50 in [2] of 129 nM. Further, in [3], the Kb was 7.76 nM.

As for `CCCc1nc2c(C)cc(C(=O)N[C@@H](COC)c3ccccc3)cc2n1Cc1ccc(-c2ccccc2C(=O)O)cc1`, the IC50 in data set [2] was 70 nM. The Kb in data set [3] is 3.16 nM.

Consider `CCCSc1nc2c(C)cc(C(=O)NC[C@H](C)c3ccccc3)cc2n1Cc1ccc(-c2ccccc2-c2nnn[nH]2)cc1`, for which the IC50 in [2] was determined as 1.4 nM. Besides, in the data set on Rattus norvegicus [4], the result was inactive.

As usually defined, the mortality is the share of the test organisms that died. Usually LD50 stands for the dose at which mortality reaches 50%. In the case of `CCCCc1nc(Cl)c(CO)n1Cc1ccc(-c2ccccc2-c2nn[nH]n2)cc1` [LOSARTAN], the mortality at 336 h in data set [5] was found to be 90%; in data set [6] it was 80%; in data set [7], 30%; in data set [8], 10%. Also, the LD50 at 336 h in [9] worked out at 1570 mg/kg.

In data set [2], `CCCc1nc2c(C)cc(C(=O)N[C@H](COC)c3ccccc3)cc2n1Cc1ccc(-c2ccccc2C(=O)O)cc1` returned an IC50 of 57.9 nM. Also, in data set [3], the Kb is 3.63 nM.

For `CCCc1nc2c(C)cc(C(=O)N[C@@H](CO)c3ccccc3)cc2n1Cc1ccc(-c2ccccc2C(=O)O)cc1`, the IC50 in data set [2] stood at 496 nM. Moreover, the Kb in data set [3] was 7.41 nM.

Consider `CCCc1nc2c(C)cc(C(=O)NC[C@@H](C)c3ccccc3)cc2n1Cc1ccc(-c2ccccc2C(=O)O)cc1`, for which the IC50 in data set [2] stood at 40.4 nM. In addition, the Kb in data set [3] is 1.86 nM.

As to `CCCc1nc2c(C)cc(C(=O)N[C@@H](COC)c3ccccc3)cc2n1Cc1ccc(-c2ccccc2-c2nnn[nH]2)cc1`, the IC50 in data set [2] came to 38.9 nM. In addition, the Kb in data set [3] was 6.92 nM.

The compound `CCCc1nc2c(C)cc(C(=O)N[C@H](CO)c3ccccc3)cc2n1Cc1ccc(-c2ccccc2C(=O)O)cc1` had an IC50 in data set [2] of 214 nM. For the same compound, in data set [3], the Kb was 3.98 nM.

In [2], `CCCc1nc2c(C)cc(C(=O)N[C@H](COC)c3ccccc3)cc2n1Cc1ccc(-c2ccccc2-c2nnn[nH]2)cc1` came in with an IC50 of 157 nM. Besides, the Kb in data set [3] was 3.16 nM.

For the compound `CCCc1nc2c(C)cc(C(=O)NCC(C)c3ccccc3)cc2n1Cc1ccc(-c2ccccc2-c2nnn[nH]2)cc1` (racemic), the IC50 in data set [2] amounted to 16.7 nM. Moreover, the Kb in data set [3] is 3.09 nM.

Take `CCCc1nc2c(C)cc(C(=O)NC[C@H](C)c3ccccc3)cc2n1Cc1ccc(-c2ccccc2C(=O)O)cc1`: the IC50 in data set [2] came out at 23 nM. Further, the Kb in data set [3] was 5.62 nM.

Regarding `CCCc1nc2c(C)cc(C(=O)NCCc3ccccc3)cc2n1Cc1ccc(-c2ccccc2C(=O)O)cc1`, the IC50 in [2] was determined as 23.1 nM. Moreover, the Kb in [3] is 8.13 nM.

The compound `CCCc1nc2c(C)cc(C(=O)N[C@@H](C)c3ccccc3)cc2n1Cc1ccc(-c2ccccc2C(=O)O)cc1` registered an IC50 in data set [2] of 19.5 nM. The result in the data set with Rattus norvegicus [4] was inactive.

In data set [2], `CCCc1nc2c(C)cc(C(=O)N[C@@H](CO)c3ccccc3)cc2n1Cc1ccc(-c2ccccc2-c2nnn[nH]2)cc1` gave an IC50 of 293 nM. Also, in data set [3], the Kb was 15.8 nM.

For `CCCSc1nc2c(C)cc(C(=O)NC[C@@H](C)c3ccccc3)cc2n1Cc1ccc(-c2ccccc2-c2nnn[nH]2)cc1`, in [2], the IC50 stood at 2.7 nM. In addition, the result with Rattus norvegicus [4] was inactive.
